The values below come from patent publication US11427615B2, “Peptide compound and application thereof, and composition containing peptide compound” (XDCEXPLORER (SHANGHAI) CO., LTD., priority 2017, dated 2022).

The nature of series [1]: Plasma stability, LC-MS/MS. In kind it is in vitro ADME. The note with it: rat plasma, 37° C., final concentration 500 ng/ml, time points 0 minutes, 1, 2 and 4 hours; calculated half-life; read-out: Rat plasma (T½ (h)) (converted). The method, then:
Effect Embodiment 2 Experimental Data on Plasma Stability of Some Compounds
1. Preparation of 50 mM Phosphate Buffer:
The 5.750 g Na2HPO4, 1.141 g NaH2PO4. and 4.095 g NaCl (Shanghai Titan) weighed was dissolved in 1000 mL ultrapure water and the pH was adjusted to 7.4 to give 50 mM phosphate buffer containing 70 mM NaCl. The prepared phosphoric acid buffer solution was stored in the refrigerator at 4° C. and was valid for one week.
2. Preparation of compound stock solution:
1). 5 mg/mL of test compound: 5 mg of compound was weighted and dissolved in 1 mL of DMSO.
2). 20 mM control: 2.728 mg of Fuka was dissolved in 0.5 mL of DMSO. 3.878 mg of benzalkonium bromide was dissolved in 0.5 mL of DMSO (Amresco).
3. Preparation of experimental plasma:
The frozen plasma (human: Shanghai wise chemistry; Rats and mice: Shanghai Sciple-Bikai; Dogs and monkeys: Suzhou Xishan Zhongke) were taken out of the −80° C. refrigerator, immediately placed in a 37° C. water bath, slightly shaken to melt it, then the thawed plasma was poured into a centrifuge tube, centrifuged at 3000 rpm for 8 min, and the supernatant was taken for experiments. The pH value of plasma was detected by a pH Meter & Sensor (METTLER TOLEDO). Only plasma with a pH value between 7.4 and 8 was used in the experiment. The plasma was placed on an ice bath for later use.
4. Preparation of administration solution:
1). 125 µg/ml test compound solution: 5 μL of 5 mg/mL test compound (see step 2) was added into 195 μL DMSO; 500 μM control solution: 20 mM control stock solution (see step 2) was added to 195 μL DMSO.
2). 0.5% BSA phosphate buffer solution: 0.05 g BSA was added to 10 mL phosphate buffer solution (see step 1);
3). 5 µg/ml of test compound administration solution: 40 μL of 125 μg/mL of test compound solution was added into 960 μL 0.5% BSA phosphate buffer solution, stirred and mixed evenly, and the administration solution was preheated in a 37° C. water bath for 5 minutes.
20 μM reference substance administration solution: 40 μL of 500 μM reference substance administration solution was added into 960 μL 0.5% BSA phosphate buffer solution, stirred and mixed evenly, and the administration solution was preheated in a 37° C. water bath for 5 minutes.
5. 10 μL of 5 μg/mL of the test compound and 20 μM of the control substance administration solution were respectively added to the wells set at different time points (0 minutes, 1 hour, 2 hours and 4 hours) on the 96-well plate, and the number of duplicate samples was 3.
6. 500 μL of ACN (IS) containing 5% FA was added to the well set at 0 minute hour, then 90 μL of plasma was added, after mixing, sealing film was pasted and placed at 4° C. (number of duplicate samples was 3).
7. 90 μL of plasma was added to the wells with set time points of 1 hour, 2 hours and 4 hours respectively, the number of duplicate samples was 3, and timing was started (the final concentration of the test compound was 500 ng/ml; The control was 2 μM).
9. All samples (0 minutes, 1 hour, 2 hours and 4 hours) at different time points on a 96-well plate were shaken for 10 minutes at 600 rpm/min on an oscillator (MTS 2/4, IKA), and then the samples were centrifuged for 15 minutes at 5594×g in a centrifuge (Multifuge×3R, thermo Fisher).
10. 150 μL of supernatant was taken from the centrifuged sample and sent to LC-MS/MS for analysis (conventional polypeptide LC-MS/MS analysis method).

For series [2], the target named is T1, human kiss1 receptor (GPR54) (Homo sapiens, UniProt Q969F8).
T1 construct: host or cells: NFAT-bla CHO-K1 cells (Chinese hamster ovary), purchased recombinant cell line
T1 sequence (Q969F8 whole entry): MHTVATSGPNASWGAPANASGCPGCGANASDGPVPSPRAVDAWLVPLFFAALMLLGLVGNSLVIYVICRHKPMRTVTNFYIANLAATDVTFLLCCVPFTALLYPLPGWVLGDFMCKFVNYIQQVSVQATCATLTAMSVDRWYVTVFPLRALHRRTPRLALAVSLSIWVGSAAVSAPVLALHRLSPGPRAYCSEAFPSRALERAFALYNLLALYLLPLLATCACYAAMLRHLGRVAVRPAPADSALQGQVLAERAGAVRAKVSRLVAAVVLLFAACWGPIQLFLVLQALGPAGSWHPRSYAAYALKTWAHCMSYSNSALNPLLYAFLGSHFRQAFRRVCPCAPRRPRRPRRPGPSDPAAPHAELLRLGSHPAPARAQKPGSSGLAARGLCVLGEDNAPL
Kind of series: Kiss1 receptor (GPR54) binding activity of agonists, FRET detection in NFAT-bla CHO-K1 cells. It counts as cell-based.
Experimental: Effect Embodiment 1 Determination of Kiss1 Receptor (GPR54) Binding Activity of Kiss1 Receptor (GPR54) Agonist
The binding activity test of each compound from the above the embodiments with kiss1 receptor (GPR54) was performed by fluorescence energy resonance transfer (FRET) detection technology to detect EC50 values of polypeptides and peptide analogs. The cells used in this experiment were NFAT-bla CHO-K1 cells (k1720, invitrogen, thermosher) that express human kiss1 receptor (GPR54). The specific operations were as follows:
Day 1: Seeding Cells in Plate
1. Microscope (CKX41, OLYMPUS), object lens×4 times, ocular lens×10 times. The cells were ensured in a good condition.
2. Digesting the cells, adding 3 ml of 0.05% pancreatin into a culture dish; cells were placed in a 37° C., 5% CO2 incubator for 2 minutes (Thermo Fisher). After the cells became round under the microscope, 7 ml of culture medium was added. The formula of culture medium was as follows: DMEM 90%, dialzedfbS10, NEAA 0.1 mM, HEPES 25 mM, Penicillin 100 U/ml, Streptomycin 100 μm/ml, pH7.3. After blowing and stirring, it was transferred to 15 mL centrifuge tube (430790, Corning). Centrifuge at 1000 rpm for 5 min (5810R, Eppendorf) and the supernatant was discard.
3. Adding 7 mL of culture medium (DMEM+0.1% BSA), it was pipetting into single cell suspension, after counting with Bio-RAD counter, the cell density was adjusted to 312,500 cells/ml.
4. Cells were inoculated into 384 well plates at 32 μL per well, and the cell number was controlled at 10000 cells/well. 32 μl of culture medium was added into the blank control.
Day 2: Dosing and Data Analysis
1) The compound to be tested was prepared into 50 mM working solution with DMSO.
2) 40 μl of the working solution of the compound to be tested was added into column 2 of row A-H of U-shaped 96-well plate (3797, comings), and 60 μl of DMSO was added into column 3-11. 20 μl of compound solution was sucked from the second column to the third column with a multichannel pipette blowing and stirring evenly; 20 μl of compound solution was absorbed from the third column with a multichannel pipette, then added into the fourth column, blowed and stirred to mix well; the compound was serially diluted 4-fold to a total of 10 concentrations. Column 1 and column 12 of 96-well plates were supplemented with 40 μl DMSO.
2. Intermediate Plate Configuration
1) AU-shaped 96-well plate was used, 199 μL of culture medium (DMEM+0.1% BSA) was added to each well, 1 μL of diluted compound (or DMSO) was sucked from 1000× compound plate and added into the 96-well plate at the corresponding position, blowed and stirred to mix well.
2) Homemade positive compounds and compounds to be tested were added. The cell culture plate was took out from the incubator and cells state was observed under microscope. Diluted compound in the intermediate plate or DMSO was added into the cell, 8 μl per well.
3) Cells were cultured in 37° C. and 5% CO2 for 4 hours.
3. The Substrate was Added to Detect the Binding of the Drug to the Receptor
1) 1 μmol/L CCF-4AM solution and buffer solution B, C, D were equilibrated to room temperature. LiveBLAZER™-FRET B/G Loading Kit (K1095, thermo Fisher) containing CCF-4AM and solution B, solution C, solution D were also available from Invitrogen (K1157, thermo Fisher).
2) 6× loading solution was prepared: 6 μl of CCF-4AM dissolved solution A, 60 μl of solution b, 904 μl of solution c, and 30 μl of solution D were pipetted into EP tube, blowed and stirred to mix well.
3) 8 μl of the above-mentioned liquid was sucked with a multichannel pipette, added into a 96-well plate, and incubated for 2 hours at room temperature.
4) The PerkinElmer detector was used to detect the luminous signals of each hole. FI mode, λex=409 nm, λem1=460 nm, λem2=530 nm.
4. Data Processing Using Graphpad Prism 5 (GraphPad Software. Inc)
Effective rate %=(Signal−Min)/(Max−Min)×100%.

[3] abbreviates: GPR54, measured according to the method of effect Embodiment 1, preliminary data, read-out: Preliminary measurement data (GPR54) EC50.

Like-named read-outs stand apart in the source and are kept apart here. Non-standard residues stand in square brackets, D forms with d. Residues, ends and D or L forms follow the SMILES beside them. Groups on a side chain read outwards from the residue. *: point of attachment. dPhe(2,4-Cl2) = N[C@H](Cc1ccc(Cl)cc1Cl)C(=O)O; C18 diacid = O=C(O)CCCCCCCCCCCCCCCCC(=O)*; PEG8 = NCCOCCOCCOCCOCCOCCOCCOCCOCCC(=O)O; Pro(4,4-F2) = O=C(O)[C@@H]1CC(F)(F)CN1; dAla(2-furyl) = N[C@H](Cc1ccco1)C(=O)O; Arg(Me) = CNC(=N)NCCC[C@H](N)C(=O)O; Palmitoyl = CCCCCCCCCCCCCCCC(=O)*; Hyp = O=C(O)[C@@H]1C[C@@H](O)CN1; PEG4 = NCCOCCOCCOCCOCCC(=O)O; Pip = O=C(O)[C@@H]1CCCCN1; Ac6c = NC1(C(=O)O)CCCCC1; AEEA = NCCOCCOCC(=O)O; azaGly = NNC(=O)O

Take `CNC(=N)NCCC[C@H](NC(=O)[C@H](CC(C)C)NC(=O)NNC(=O)[C@H](Cc1ccccc1)NC(=O)[C@@H](NC(=O)[C@H](CC(N)=O)NC(=O)[C@@H]1C[C@@H](O)CN1C(=O)[C@@H](Cc1ccc(O)cc1)NC(=O)COCCOCCNC(=O)COCCOCCNC(=O)CCCCCCCCCCCCCCCCC(=O)O)[C@@H](C)O)C(=O)N[C@@H](Cc1c[nH]c2ccccc12)C(N)=O` [YA-273, C 18 diacid-OEG-OEG-D-Tyr-Hyp-Asn-Thr-Phe-azaGly-Leu-Arg(Me)-Trp-NH2] ({C18 diacid-AEEA-AEEA}-[dY][Hyp]NTF[azaGly]L[Arg(Me)]W-NH2): in series [1], the half-life at 500 ng/ml is 166 h. The EC50 in series [2] (setting [3]) turned out to be 0.05 nM.
Consider `CNC(=N)NCCC[C@H](NC(=O)[C@H](CC(C)C)NC(=O)NNC(=O)[C@H](Cc1ccccc1)NC(=O)[C@@H](NC(=O)[C@H](CC(N)=O)NC(=O)[C@@H]1C[C@@H](O)CN1C(=O)[C@@H](Cc1ccc(O)cc1)NC(C)=O)[C@@H](C)O)C(=O)N[C@@H](Cc1c[nH]c2ccccc12)C(N)=O` [YA-3, Ac-(D-Tyr)-Hyp-Asn-Thr-Phe-azaGly-Leu-Arg(Me)-trp-NH2] (Ac-[dY][Hyp]NTF[azaGly]L[Arg(Me)]W-NH2), for which the half-life at 500 ng/ml in series [1] is 10.1 h. The EC50 in series [2] (setting [3]) stood at 0.03 nM; in series [2] (NFAT-bla CHO-K1 cells that express human kiss1 receptor (GPR54), FRET, cells cultured with compound for 4 hours, read-out: GPR54 EC50/nM), 0.03 nM.
Regarding `CCCCCCCCCCCCCCCC(=O)NCCOCCOCCOCCOCCOCCOCCOCCOCCC(=O)NCC(=O)NCC(=O)N[C@H](Cc1ccc(O)cc1)C(=O)N1C[C@H](O)C[C@H]1C(=O)N[C@@H](CC(N)=O)C(=O)N[C@H](C(=O)N[C@@H](Cc1ccccc1)C(=O)NNC(=O)N[C@@H](CC(C)C)C(=O)N[C@@H](CCCNC(=N)NC)C(=O)N[C@@H](Cc1c[nH]c2ccccc12)C(N)=O)[C@@H](C)O` [YA-156, Palm-PEG8-Gly-Gly-(D-Tyr)-Hyp-Asn-Thr-Phe-azaGly-Leu-Arg(Me)-Trp-NH2] ({Palmitoyl-PEG8}-GG[dY][Hyp]NTF[azaGly]L[Arg(Me)]W-NH2), the half-life at 500 ng/ml in series [1] was 44.4 h. The EC50 in series [2] (setting [3]) worked out at 0.045 nM.
On to `CCCCCCCCCCCCCCCC(=O)NCCOCCOCCOCCOCCOCCOCCOCCOCCC(=O)NCC(=O)NCC(=O)N[C@H](Cc1ccc(O)cc1)C(=O)N1C[C@H](O)C[C@H]1C(=O)N[C@@H](CC(N)=O)C(=O)N[C@H](C(=O)N[C@@H](Cc1ccccc1)C(=O)N[C@H](Cc1ccco1)C(=O)N[C@@H](CC(C)C)C(=O)N[C@@H](CCCNC(=N)NC)C(=O)N[C@@H](Cc1c[nH]c2ccccc12)C(N)=O)[C@@H](C)O` [YA-288, Palm-PEG 8-Gly-Gly-D-Tyr-Hyp-Asn-Thr-Phe-(D-2Fua)-Leu-Arg(Me)-Trp-NH2] ({Palmitoyl-PEG8}-GG[dY][Hyp]NTF[dAla(2-furyl)]L[Arg(Me)]W-NH2), for which the half-life at 500 ng/ml in series [1] was 27.5 h. For the same compound, in series [2] (setting [3]), the EC50 came out at 0.018 nM.
On to `CCCCCCCCCCCCCCCC(=O)NCCOCCOCCOCCOCCOCCOCCOCCOCCC(=O)NCCCC[C@H](NC(C)=O)C(=O)NCC(=O)NCC(=O)N[C@H](Cc1ccc(O)cc1)C(=O)N1C[C@H](O)C[C@H]1C(=O)N[C@@H](CC(N)=O)C(=O)N[C@H](C(=O)N[C@@H](Cc1ccccc1)C(=O)NNC(=O)N[C@@H](CC(C)C)C(=O)N[C@@H](CCCNC(=N)NC)C(=O)N[C@@H](Cc1c[nH]c2ccccc12)C(N)=O)[C@@H](C)O` [YA-157, Ac-Lys(Palm-PEG8)-Gly-Gly-(D-Tyr)-Hyp-Asn-Thr-Phe-azaGly-Leu-Arg(Me)-Trp-NH2] (Ac-K([PEG8-Palmitoyl])GG[dY][Hyp]NTF[azaGly]L[Arg(Me)]W-NH2), for which, in series [1], the half-life at 500 ng/ml is 6.67 h. Moreover, in series [2] (setting [3]), the EC50 amounted to 0.03 nM.
In the same order, the values of `CNC(=N)NCCC[C@H](NC(=O)[C@H](CC(C)C)NC(=O)NNC(=O)[C@H](Cc1ccccc1)NC(=O)[C@@H](NC(=O)[C@H](CC(N)=O)NC(=O)[C@@H]1C[C@@H](O)CN1C(=O)[C@@H](Cc1ccc(O)cc1)NC(=O)CCOCCOCCOCCOCCNC(C)=O)[C@@H](C)O)C(=O)N[C@@H](Cc1c[nH]c2ccccc12)C(N)=O` [YA-150, Ac-PEG4-(D-Tyr)-Hyp-Asn-Thr-Phe-azaGly-Leu-Arg(Me)-Trp-NH2] (Ac-[PEG4][dY][Hyp]NTF[azaGly]L[Arg(Me)]W-NH2) are 6.67 h and 0.004 nM.
`CNC(=N)NCCC[C@H](NC(=O)[C@H](CC(C)C)NC(=O)NNC(=O)[C@H](Cc1ccccc1)NC(=O)[C@@H](NC(=O)[C@H](CC(N)=O)NC(=O)C1(NC(=O)[C@@H](Cc2ccco2)NC(C)=O)CCCCC1)[C@@H](C)O)C(=O)N[C@@H](Cc1c[nH]c2ccccc12)C(N)=O` [YA-271, Ac-(D-2Fua)-A6c-Asn-Thr-Phe-azaGly-Leu-Arg(Me)-Trp-NH2] (Ac-[dAla(2-furyl)][Ac6c]NTF[azaGly]L[Arg(Me)]W-NH2): the half-life at 500 ng/ml in series [1] is 15.6 h. Further, in series [2] (setting [3]), the EC50 stood at 0.025 nM.
In the same order, the values of `CCCCCCCCCCCCCCCC(=O)NCCOCCOCCOCCOCCOCCOCCOCCOCCC(=O)NCC(=O)NCC(=O)N[C@H](Cc1ccco1)C(=O)N1CC(F)(F)C[C@H]1C(=O)N[C@@H](CC(N)=O)C(=O)N[C@H](C(=O)N[C@@H](Cc1ccccc1)C(=O)NC1(C(=O)N[C@@H](CC(C)C)C(=O)N[C@@H](CCCNC(=N)NC)C(=O)N[C@@H](Cc2c[nH]c3ccccc23)C(N)=O)CCCCC1)[C@@H](C)O` [YA-220, Palm-PEG8-Gly-Gly-D-3Fua-Pro(diF)-Asn-Thr-Phe-A6c-Leu-Arg(Me)-Trp-NH2] ({Palmitoyl-PEG8}-GG[dAla(2-furyl)][Pro(4,4-F2)]NTF[Ac6c]L[Arg(Me)]W-NH2) are 59 h and 0.023 nM.
In the same order, the values of `CNC(=N)NCCC[C@H](NC(=O)[C@H](CC(C)C)NC(=O)NNC(=O)[C@H](Cc1ccccc1)NC(=O)[C@@H](NC(=O)[C@H](CC(N)=O)NC(=O)[C@@H]1CCCCN1C(=O)[C@@H](Cc1ccc(Cl)cc1Cl)NC(C)=O)[C@@H](C)O)C(=O)N[C@@H](Cc1c[nH]c2ccccc12)C(N)=O` [YA-182, Ac-[D-Phe(2,4-DiCl)]—(S-Pip)-Asn-Thr-Phe-azaGly-Leu-Arg(Me)-Trp-NH2] (Ac-[dPhe(2,4-Cl2)][Pip]NTF[azaGly]L[Arg(Me)]W-NH2) are 5.32 h and 0.021 nM.
Take `CNC(=N)NCCC[C@H](NC(=O)[C@H](CC(C)C)NC(=O)C1(NC(=O)[C@H](Cc2ccccc2)NC(=O)[C@@H](NC(=O)[C@H](CC(N)=O)NC(=O)[C@@H]2CC(F)(F)CN2C(=O)[C@@H](Cc2ccco2)NC(C)=O)[C@@H](C)O)CCCCC1)C(=O)N[C@@H](Cc1c[nH]c2ccccc12)C(N)=O` [YA-201, Ac-(D-2Fua)-Pro(diF)-Asn-Thr-Phe-A6c-Leu-Arg(Me)-Trp-NH2] (Ac-[dAla(2-furyl)][Pro(4,4-F2)]NTF[Ac6c]L[Arg(Me)]W-NH2): the half-life at 500 ng/ml in series [1] is 2.65 h. Besides, the EC50 in series [2] (setting [3]) was found to be 0.39 nM.
